Reference: patent publication EP4745137A1 (Gluetacs Therapeutics (Shanghai) Co., Ltd., priority 2023, dated 2025)

How the values were obtained:
Format in all cases: cell-based
Details in all cases: 24 hours of compound treatment, 50 nM and 500 nM tested (concentration behind the class not stated)
CK1α = target: T1, CK1α (Homo sapiens, UniProt P48729+Q96SW2); assay: Western-blot assay of substrate protein degradation in hPBMCs, CK1α
T1 construct: endogenous in cells; host or cells: hPBMCs (Milecell Biotechnologies)

GSPT1 = target: T2, GSPT1 (Homo sapiens, UniProt P15170+Q96SW2); assay: Western-blot assay of substrate protein degradation in hPBMCs, GSPT1
T2 construct: endogenous in cells; host or cells: hPBMCs (Milecell Biotechnologies)

WEE1 = target: T3, WEE1 (Homo sapiens, UniProt P30291+Q96SW2); assay: Western-blot assay of substrate protein degradation in hPBMCs, WEE1
T3 construct: endogenous in cells; host or cells: hPBMCs (Milecell Biotechnologies)

IKZF1 = target: T4, IKZF1 (Homo sapiens, UniProt Q13422+Q96SW2); assay: Western-blot assay of substrate protein degradation in hPBMCs, IKZF1
T4 construct: endogenous in cells; host or cells: hPBMCs (Milecell Biotechnologies)

IKZF3 = target: T5, IKZF3 (Homo sapiens, UniProt Q96SW2+Q9UKT9); assay: Western-blot assay of substrate protein degradation in hPBMCs, IKZF3
T5 construct: endogenous in cells; host or cells: hPBMCs (Milecell Biotechnologies)

IKZF2 = target: T6, IKZF2 (Homo sapiens, UniProt Q96SW2+Q9UKS7); assay: Western-blot assay of substrate protein degradation in hPBMCs, IKZF2
T6 construct: endogenous in cells; host or cells: hPBMCs (Milecell Biotechnologies)
T6 sequence (Q9UKS7 whole entry): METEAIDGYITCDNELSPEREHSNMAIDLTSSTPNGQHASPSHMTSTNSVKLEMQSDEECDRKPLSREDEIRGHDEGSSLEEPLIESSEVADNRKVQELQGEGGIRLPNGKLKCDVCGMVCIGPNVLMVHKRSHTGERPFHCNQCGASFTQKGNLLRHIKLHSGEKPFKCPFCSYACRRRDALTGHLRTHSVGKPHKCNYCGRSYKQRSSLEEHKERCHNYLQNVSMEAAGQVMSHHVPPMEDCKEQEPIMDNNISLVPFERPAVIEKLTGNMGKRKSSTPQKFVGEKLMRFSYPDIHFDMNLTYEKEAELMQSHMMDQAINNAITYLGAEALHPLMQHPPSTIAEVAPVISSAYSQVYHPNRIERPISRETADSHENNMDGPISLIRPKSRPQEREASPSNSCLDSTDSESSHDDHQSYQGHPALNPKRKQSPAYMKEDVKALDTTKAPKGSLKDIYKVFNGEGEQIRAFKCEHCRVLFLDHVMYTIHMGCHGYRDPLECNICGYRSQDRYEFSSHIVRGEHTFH
T6 sequence (Q96SW2 whole entry): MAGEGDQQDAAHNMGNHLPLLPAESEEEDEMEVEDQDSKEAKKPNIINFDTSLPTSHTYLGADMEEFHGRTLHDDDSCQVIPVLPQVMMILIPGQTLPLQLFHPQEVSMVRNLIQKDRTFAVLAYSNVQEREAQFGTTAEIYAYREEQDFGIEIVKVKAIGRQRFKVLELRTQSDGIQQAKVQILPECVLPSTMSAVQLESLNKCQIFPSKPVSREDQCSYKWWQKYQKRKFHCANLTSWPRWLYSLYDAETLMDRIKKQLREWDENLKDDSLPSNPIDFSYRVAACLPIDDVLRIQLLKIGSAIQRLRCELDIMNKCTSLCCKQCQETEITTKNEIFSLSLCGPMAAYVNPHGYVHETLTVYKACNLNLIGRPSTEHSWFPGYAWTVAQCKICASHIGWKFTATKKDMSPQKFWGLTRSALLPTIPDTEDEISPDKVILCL
T6 sequence (Q16531 whole entry partner): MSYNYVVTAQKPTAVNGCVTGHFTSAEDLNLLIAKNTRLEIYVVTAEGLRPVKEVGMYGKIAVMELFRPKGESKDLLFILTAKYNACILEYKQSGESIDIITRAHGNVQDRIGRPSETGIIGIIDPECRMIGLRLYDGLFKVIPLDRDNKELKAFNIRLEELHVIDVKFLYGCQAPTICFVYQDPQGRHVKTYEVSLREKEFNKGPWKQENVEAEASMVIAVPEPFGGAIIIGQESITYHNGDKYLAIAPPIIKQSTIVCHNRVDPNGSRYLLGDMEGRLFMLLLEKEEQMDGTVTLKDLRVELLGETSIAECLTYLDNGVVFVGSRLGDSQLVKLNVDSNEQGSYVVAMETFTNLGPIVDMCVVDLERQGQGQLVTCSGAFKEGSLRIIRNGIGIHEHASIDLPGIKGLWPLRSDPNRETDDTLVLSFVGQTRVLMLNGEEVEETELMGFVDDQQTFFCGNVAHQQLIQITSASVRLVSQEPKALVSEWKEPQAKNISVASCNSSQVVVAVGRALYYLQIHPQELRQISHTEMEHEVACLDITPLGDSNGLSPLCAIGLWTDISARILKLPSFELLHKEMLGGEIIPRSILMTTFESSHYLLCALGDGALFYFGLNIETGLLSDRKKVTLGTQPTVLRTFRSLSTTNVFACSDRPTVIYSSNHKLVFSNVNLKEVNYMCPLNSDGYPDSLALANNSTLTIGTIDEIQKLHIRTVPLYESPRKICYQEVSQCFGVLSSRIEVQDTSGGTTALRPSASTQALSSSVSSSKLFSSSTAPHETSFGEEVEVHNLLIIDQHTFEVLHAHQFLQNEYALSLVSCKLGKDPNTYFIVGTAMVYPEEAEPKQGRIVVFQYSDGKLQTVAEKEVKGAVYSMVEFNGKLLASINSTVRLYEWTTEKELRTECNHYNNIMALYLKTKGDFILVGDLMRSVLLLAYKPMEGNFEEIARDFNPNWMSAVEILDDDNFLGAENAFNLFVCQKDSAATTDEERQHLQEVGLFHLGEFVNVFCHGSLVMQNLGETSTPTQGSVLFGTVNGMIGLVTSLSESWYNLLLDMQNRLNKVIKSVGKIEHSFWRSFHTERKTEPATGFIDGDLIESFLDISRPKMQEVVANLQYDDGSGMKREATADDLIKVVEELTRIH

T1 sequence (P48729 whole entry): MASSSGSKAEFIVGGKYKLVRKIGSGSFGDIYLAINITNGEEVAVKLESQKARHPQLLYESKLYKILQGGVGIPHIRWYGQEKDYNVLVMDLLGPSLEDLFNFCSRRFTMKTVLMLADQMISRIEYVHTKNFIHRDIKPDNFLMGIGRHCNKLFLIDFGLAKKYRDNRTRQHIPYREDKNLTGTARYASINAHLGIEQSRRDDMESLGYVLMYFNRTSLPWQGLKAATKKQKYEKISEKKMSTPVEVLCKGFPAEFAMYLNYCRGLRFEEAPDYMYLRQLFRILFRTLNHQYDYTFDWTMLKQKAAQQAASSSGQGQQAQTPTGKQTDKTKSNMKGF
T1 sequence (Q96SW2 whole entry): as the sequence (Q96SW2 whole entry) above
T1 sequence (Q16531 whole entry partner): as the sequence (Q16531 whole entry partner) above
T3 sequence (P30291 whole entry): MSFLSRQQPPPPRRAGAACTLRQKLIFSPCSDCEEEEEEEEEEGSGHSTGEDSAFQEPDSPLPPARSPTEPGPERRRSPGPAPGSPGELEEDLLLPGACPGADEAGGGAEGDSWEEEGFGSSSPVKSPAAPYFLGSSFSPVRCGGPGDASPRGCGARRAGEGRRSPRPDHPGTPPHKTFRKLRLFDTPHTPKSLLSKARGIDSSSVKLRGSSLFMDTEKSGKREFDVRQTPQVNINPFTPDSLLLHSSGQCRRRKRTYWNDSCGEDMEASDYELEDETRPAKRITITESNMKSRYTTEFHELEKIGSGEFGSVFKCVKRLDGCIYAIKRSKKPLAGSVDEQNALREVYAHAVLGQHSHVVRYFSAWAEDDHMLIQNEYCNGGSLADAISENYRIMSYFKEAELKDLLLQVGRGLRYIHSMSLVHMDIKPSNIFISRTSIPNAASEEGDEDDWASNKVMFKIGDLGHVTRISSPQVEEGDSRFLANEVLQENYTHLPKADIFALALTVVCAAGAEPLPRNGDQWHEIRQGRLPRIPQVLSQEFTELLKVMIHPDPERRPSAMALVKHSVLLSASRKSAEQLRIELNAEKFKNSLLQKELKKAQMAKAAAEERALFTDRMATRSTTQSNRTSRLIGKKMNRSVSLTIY
T3 sequence (Q96SW2 whole entry): as the sequence (Q96SW2 whole entry) above
T3 sequence (Q16531 whole entry partner): as the sequence (Q16531 whole entry partner) above
T4 sequence (Q13422 whole entry): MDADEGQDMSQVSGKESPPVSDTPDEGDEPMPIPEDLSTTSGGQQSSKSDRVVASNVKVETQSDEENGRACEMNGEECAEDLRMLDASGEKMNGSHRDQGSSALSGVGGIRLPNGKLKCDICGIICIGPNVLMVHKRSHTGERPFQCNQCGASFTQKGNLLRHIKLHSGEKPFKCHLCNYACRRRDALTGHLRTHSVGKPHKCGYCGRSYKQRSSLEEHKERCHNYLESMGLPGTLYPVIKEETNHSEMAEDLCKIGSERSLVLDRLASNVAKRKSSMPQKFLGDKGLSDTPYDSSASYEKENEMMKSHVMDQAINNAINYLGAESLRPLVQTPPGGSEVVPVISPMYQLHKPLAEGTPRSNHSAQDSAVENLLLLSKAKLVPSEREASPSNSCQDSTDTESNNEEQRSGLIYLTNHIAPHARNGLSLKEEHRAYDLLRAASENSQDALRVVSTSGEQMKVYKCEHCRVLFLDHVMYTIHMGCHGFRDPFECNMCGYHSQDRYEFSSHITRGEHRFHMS
T4 sequence (Q96SW2 whole entry): as the sequence (Q96SW2 whole entry) above
T4 sequence (Q16531 whole entry partner): as the sequence (Q16531 whole entry partner) above
T2 sequence (P15170 whole entry): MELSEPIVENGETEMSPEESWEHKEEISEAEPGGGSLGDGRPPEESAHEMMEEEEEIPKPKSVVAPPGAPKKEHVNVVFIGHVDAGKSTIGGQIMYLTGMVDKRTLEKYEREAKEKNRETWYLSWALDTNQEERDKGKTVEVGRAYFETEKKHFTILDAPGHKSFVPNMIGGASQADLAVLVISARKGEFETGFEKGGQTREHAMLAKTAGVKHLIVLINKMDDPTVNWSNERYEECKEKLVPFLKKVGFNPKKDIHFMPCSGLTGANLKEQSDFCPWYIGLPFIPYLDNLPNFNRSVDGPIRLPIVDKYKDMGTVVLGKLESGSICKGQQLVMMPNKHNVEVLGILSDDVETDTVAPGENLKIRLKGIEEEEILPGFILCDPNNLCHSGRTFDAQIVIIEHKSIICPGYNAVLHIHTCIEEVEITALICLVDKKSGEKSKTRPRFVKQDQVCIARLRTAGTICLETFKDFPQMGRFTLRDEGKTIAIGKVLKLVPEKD
T2 sequence (Q96SW2 whole entry): as the sequence (Q96SW2 whole entry) above
T2 sequence (Q16531 whole entry partner): as the sequence (Q16531 whole entry partner) above

Row | SMILES | CK1a substrate protein remaining % (CK1α) | GSPT1 substrate protein remaining % (GSPT1) | Weel substrate protein remaining % (WEE1) | IKZF 1 substrate protein remaining % (IKZF1) | IKZF3 substrate protein remaining % (IKZF3) | IKZF2 substrate protein remaining % (IKZF2)
1 | Cc1ccc(Cl)cc1N1CCN(Cc2ccc3c(c2)C(=O)N(C2CCC(=O)NC2=O)C3=O)CC1 (stereo not drawn) [GT-06367, 5-((4-(5-chloro-2-methylphenyl)piperazin-1-yl)methyl)-2-(2,6-dioxopiperidin-3-yl)isoindoline-1,3-dione] | B (80%< substrate protein remaining %≤ 100%) | A (0% ≤ substrate protein remaining % ≤ 80%) | A (0% ≤ substrate protein remaining % ≤ 80%) | B (80%< substrate protein remaining %≤ 100%) | A (0% ≤ substrate protein remaining % ≤ 80%) | A (0% ≤ substrate protein remaining % ≤ 80%)
2 | O=C1CCC(N2C(=O)c3ccc(CN4CCC(c5ccccc5)CC4)cc3C2=O)C(=O)N1 (stereo not drawn) [GT-06368, 2-(2,6-dioxopiperidin-3-yl)-5-((4-phenylpiperidin-1-yl)methyl)isoindoline-1,3-dione] | A (0% ≤ substrate protein remaining % ≤ 80%) | A (0% ≤ substrate protein remaining % ≤ 80%) | A (0% ≤ substrate protein remaining % ≤ 80%) | B (80%< substrate protein remaining %≤ 100%) | A (0% ≤ substrate protein remaining % ≤ 80%) | A (0% ≤ substrate protein remaining % ≤ 80%)
3 | O=C1CCC(N2C(=O)c3ccc(CN4CCC(c5cccc(Br)c5)CC4)cc3C2=O)C(=O)N1 (stereo not drawn) [GT-06369, 5-((4-(3-bromophenyl)piperidin-1-yl)methyl)-2-(2,6-dioxopiperidin-3-yl)isoindoline-1,3-dione] | A (0% ≤ substrate protein remaining % ≤ 80%) | A (0% ≤ substrate protein remaining % ≤ 80%) | A (0% ≤ substrate protein remaining % ≤ 80%) | A (0% ≤ substrate protein remaining % ≤ 80%) | A (0% ≤ substrate protein remaining % ≤ 80%) | A (0% ≤ substrate protein remaining % ≤ 80%)
4 | O=C1CCC(N2C(=O)c3ccc(CN4CCC(c5ccc(Br)cc5)CC4)cc3C2=O)C(=O)N1 (stereo not drawn) [GT-06370, 5-((4-(4-bromophenyl)piperidin-1-yl)methyl)-2-(2,6-dioxopiperidin-3-yl)isoindoline-1,3-dione] | A (0% ≤ substrate protein remaining % ≤ 80%) | A (0% ≤ substrate protein remaining % ≤ 80%) | A (0% ≤ substrate protein remaining % ≤ 80%) | B (80%< substrate protein remaining %≤ 100%) | A (0% ≤ substrate protein remaining % ≤ 80%) | A (0% ≤ substrate protein remaining % ≤ 80%)
5 | O=C1CCC(N2C(=O)c3ccc(CN4CCC(c5ccccc5Cl)CC4)cc3C2=O)C(=O)N1 (stereo not drawn) [GT-06371, 5-((4-(2-chlorophenyl)piperidin-1-yl)methyl)-2-(2,6-dioxopiperidin-3-yl)isoindoline-1,3-dione] | B (80%< substrate protein remaining %≤ 100%) | A (0% ≤ substrate protein remaining % ≤ 80%) | B (80%< substrate protein remaining %≤ 100%) | A (0% ≤ substrate protein remaining % ≤ 80%) | B (80%< substrate protein remaining %≤ 100%) | B (80%< substrate protein remaining %≤ 100%)
6 | O=C1CCC(N2C(=O)c3ccc(CN4CCC(c5ccc(Cl)cc5)CC4)cc3C2=O)C(=O)N1 (stereo not drawn) [GT-06372, 5-((4-(4-chlorophenyl)piperidin-1-yl)methyl)-2-(2,6-dioxopiperidin-3-yl)isoindoline-1,3-dione] | B (80%< substrate protein remaining %≤ 100%) | A (0% ≤ substrate protein remaining % ≤ 80%) | A (0% ≤ substrate protein remaining % ≤ 80%) | A (0% ≤ substrate protein remaining % ≤ 80%) | B (80%< substrate protein remaining %≤ 100%) | A (0% ≤ substrate protein remaining % ≤ 80%)
7 | O=C1CCC(N2C(=O)c3ccc(CN4CCC(c5ccccc5F)CC4)cc3C2=O)C(=O)N1 (stereo not drawn) [GT-06373, 2-(2,6-dioxopiperidin-3-yl)-5-((4-(2-fluorophenyl)piperidin-1-yl)methyl)isoindoline-1,3-dione] | B (80%< substrate protein remaining %≤ 100%) | A (0% ≤ substrate protein remaining % ≤ 80%) | A (0% ≤ substrate protein remaining % ≤ 80%) | A (0% ≤ substrate protein remaining % ≤ 80%) | B (80%< substrate protein remaining %≤ 100%) | A (0% ≤ substrate protein remaining % ≤ 80%)
8 | O=C1CCC(N2C(=O)c3ccc(CN4CCC(c5ccc(F)cc5)CC4)cc3C2=O)C(=O)N1 (stereo not drawn) [GT-06374, 2-(2,6-dioxopiperidin-3-yl)-5-((4-(4-fluorophenyl)piperidin-1-yl)methyl)isoindoline-1,3-dione] | B (80%< substrate protein remaining %≤ 100%) | A (0% ≤ substrate protein remaining % ≤ 80%) | A (0% ≤ substrate protein remaining % ≤ 80%) | A (0% ≤ substrate protein remaining % ≤ 80%) | B (80%< substrate protein remaining %≤ 100%) | A (0% ≤ substrate protein remaining % ≤ 80%)
9 | O=C1CCC(N2C(=O)c3ccc(CN4CCC(c5ccccc5C(F)(F)F)CC4)cc3C2=O)C(=O)N1 (stereo not drawn) [GT-06375, 2-(2,6-dioxopiperidin-3-yl)-5-((4-(2-(trifluoromethyl)phenyl)piperidin-1-yl)methyl)isoindoline-1,3-dione] | B (80%< substrate protein remaining %≤ 100%) | A (0% ≤ substrate protein remaining % ≤ 80%) | A (0% ≤ substrate protein remaining % ≤ 80%) | A (0% ≤ substrate protein remaining % ≤ 80%) | B (80%< substrate protein remaining %≤ 100%) | A (0% ≤ substrate protein remaining % ≤ 80%)
10 | O=C1CCC(N2C(=O)c3ccc(CN4CC=C(c5cccc(F)c5Cl)CC4)cc3C2=O)C(=O)N1 (stereo not drawn) [GT-06429, 5-((4-(2-chloro-3-fluorophenyl)-3,6-dihydropyridin-1(2H)-yl)methyl)-2-(2,6-dioxopiperidin-3-yl)isoindoline-1,3-dione] | A (0% ≤ substrate protein remaining % ≤ 80%) | A (0% ≤ substrate protein remaining % ≤ 80%) | A (0% ≤ substrate protein remaining % ≤ 80%) | A (0% ≤ substrate protein remaining % ≤ 80%) | A (0% ≤ substrate protein remaining % ≤ 80%) | A (0% ≤ substrate protein remaining % ≤ 80%)
11 | O=C1CCC(N2C(=O)c3ccc(CN4CCN(c5ccccn5)CC4)cc3C2=O)C(=O)N1 (stereo not drawn) [GT-06521, 2-(2,6-dioxopiperidin-3-yl)-5-((4-(pyridin-2-yl)piperazin-1-yl)methyl)isoindoline-1,3-dione] | B (80%< substrate protein remaining %≤ 100%) | A (0% ≤ substrate protein remaining % ≤ 80%) | B (80%< substrate protein remaining %≤ 100%) | B (80%< substrate protein remaining %≤ 100%) | B (80%< substrate protein remaining %≤ 100%) | B (80%< substrate protein remaining %≤ 100%)
12 | Cc1cccc(N2CCN(Cc3ccc4c(c3)C(=O)N(C3CCC(=O)NC3=O)C4=O)CC2)n1 (stereo not drawn) [GT-06522, 2-(2,6-dioxopiperidin-3-yl)-5-((4-(6-methylpyridin-2-yl)piperazin-1-yl)methyl)isoindoline-1,3-dione] | B (80%< substrate protein remaining %≤ 100%) | A (0% ≤ substrate protein remaining % ≤ 80%) | B (80%< substrate protein remaining %≤ 100%) | B (80%< substrate protein remaining %≤ 100%) | B (80%< substrate protein remaining %≤ 100%) | B (80%< substrate protein remaining %≤ 100%)
13 | O=C1CCC(N2C(=O)c3ccc(CN4CCN(c5cccc(Cl)n5)CC4)cc3C2=O)C(=O)N1 (stereo not drawn) [GT-06523, 5-((4-(6-chloropyridin-2-yl)piperazin-1-yl)methyl)-2-(2,6-dioxopiperidin-3-yl)isoindoline-1,3-dione] | B (80%< substrate protein remaining %≤ 100%) | A (0% ≤ substrate protein remaining % ≤ 80%) | B (80%< substrate protein remaining %≤ 100%) | A (0% ≤ substrate protein remaining % ≤ 80%) | B (80%< substrate protein remaining %≤ 100%) | B (80%< substrate protein remaining %≤ 100%)
